2 compounds from patent US11091497B2, “Pyrano[3,4-b]pyrazine kappa opioid receptor ligands for treating addiction, pruritus, pain, and inflammation” (The Rockefeller University, priority 2017, dated 2021) can be followed below.

Data set [1] addresses T1, kappa opioid receptor (PathHunter U2OS hOPRK1 membranes) (Homo sapiens, UniProt P41145).
T1 construct: host or cells: U2OS (PathHunter U2OS hOPRK1 β-arrestin cell line)
The experiment in a line: Tritiated U69,593 binding for KOP-R membranes.

For the next data set, the system named is mice. Put plainly: Rotarod incoordination in mice. It is filed as in vivo. Conditions: intraperitoneal. The text has this: In the case of rotarod incoordination, kappa agonist effects in this assay reflect kappa-opioid receptor arrestin mediated signaling. This assay is thought to be a sensitive measure of the sedative properties of kappa opioid receptor agonists. Generally, a compound which has reduced efficacy in the coupling of arrestin with the kappa opioid receptor is thought to have a lowered potential for the sedative side effects of kappa opioid receptor ligands. Rotarod assays in vivo are employed to confirm this possibility.
Rotarod experiments were conducted with mice using a dedicated rodent rotarod apparatus, with up to five animals tested concurrently (IITC Life Science, Woodland Hills, Calif., USA). Rotarod rotation rate begins at 3 rotations per minute, and ramps to 30 rotations per minute over the course of 300 s, at which time the assay is terminated and animals removed to their home cage. Animals were acclimated to the rotarod on at least two occasions prior to the day of the test. On the day of the test, baseline times for each animal to fall off the rotarod were recorded. Mice were then injected intraperitoneally with vehicle or compound, and rotarod measurements conducted, beginning 0-2 minutes after injection, and then subsequently at select time points thereafter.
On the technique in general: Falling from the rotarod earlier than controls is read as motor impairment.

Data set [2] concerns the target T2, kappa opioid receptor (PathHunter U2OS hOPRK1 β-arrestin cell line) (Homo sapiens, UniProt P41145).
T2 construct: host or cells: U2OS (PathHunter U2OS hOPRK1 β-arrestin cell line)
Put plainly: β-arrestin coupling (PathHunter Detection Kit). Conditions: for Emax at 10 µM: U2OS, read-out: β-arrestin coupling % efficacy. It is filed as cell-based.

A further data set relates to Serum prolactin levels. Put plainly: Prolactin release in mice. It is filed as in vivo. The settings on record: intraperitoneal, 30 minutes prior to sampling. Here is the method: Mice were injected intraperitoneally with the compound to be tested 30 minutes prior to sampling. Trunk blood was collected by rapid decapitation, followed within 2 hours by preparation of serum. Serum prolactin levels were determined using a commercially available enzyme-linked immunoassay (AbCam, Cambridge, UK) following dilution of serum 5-fold in assay buffer.

Usually IC50 stands for the concentration at which inhibition is half-maximal. Broadly, the EC50 is the midpoint of the concentration-response curve.

T2 sequence (P41145 whole entry): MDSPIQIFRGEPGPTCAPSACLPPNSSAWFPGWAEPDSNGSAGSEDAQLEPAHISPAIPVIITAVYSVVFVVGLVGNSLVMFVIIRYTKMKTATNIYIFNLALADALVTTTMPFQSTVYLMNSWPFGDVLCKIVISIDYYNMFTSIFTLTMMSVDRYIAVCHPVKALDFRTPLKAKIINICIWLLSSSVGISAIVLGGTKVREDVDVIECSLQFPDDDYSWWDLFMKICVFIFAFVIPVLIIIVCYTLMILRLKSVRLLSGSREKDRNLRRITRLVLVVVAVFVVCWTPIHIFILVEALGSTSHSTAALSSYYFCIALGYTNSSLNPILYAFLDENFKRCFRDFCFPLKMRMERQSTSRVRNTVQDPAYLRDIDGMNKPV
T1 sequence (P41145 whole entry): as above

For `O=C(Cc1ccc(Cl)c(Cl)c1)N1CCN[C@@H]2COC[C@H](N3CCCC3)[C@H]21` (racemic) [Example 5A22, 1-[8-pyrrolidin-1-yl-2,3,4,4a,5,7,8,8a-octahydropyrano(3,4-b)pyrazin-1-yl]-2-(3,4-dichlorophenyl)ethanone], the IC50 in data set [1] turned out to be 65 nM. Moreover, the rotarod incoordination result was “no significant incoordination” in the data set on mice (10 mg/kg), “significant incoordination” with mice (30 mg/kg) and “significant incoordination” in the data set with mice (90 mg/kg). The concentration giving a half-maximal response (EC50) in data set [2] was 1130 nM. Further, the Emax at 10 µM in data set [2] was determined as 67%. The prolactin release result with Serum prolactin levels (5 mg/kg) is “significant prolactin release”.
As to `CN1CCN(C(=O)Cc2ccc(Cl)c(Cl)c2)[C@H]2[C@H]1COC[C@@H]2N1CCCC1` (racemic) [Example 5A23, 1-[4-methyl-8-pyrrolidin-1-yl-3,4a,5,7,8,8a-hexahydro-2H- -pyrano(3,4-b)pyrazin-1-yl]-2-(3,4-dichlorophenyl)ethanone], in data set [1], the IC50 came to 103 nM. The rotarod incoordination result in the data set with mice (10 mg/kg) was “no significant incoordination”; in the data set with mice (30 mg/kg) it was “statistically significant incoordination”; in the data set on mice (90 mg/kg) it was “statistically significant incoordination”. Besides, in data set [2], the EC50 is 5540 nM. For the same compound, the Emax at 10 µM in data set [2] was 44%. Further, the prolactin release entry with Serum prolactin levels (30 mg/kg) is “significant prolactin release”.
